Measured values reported in patent US20100298141A1, “SUBSTITUTED PYRIDINE N-OXIDE HERBICIDES” (E. I. DU PONT DE NEMOURS AND COMPANY, priority 2007, published 2010).

Columns and labels:
wild oat = assay: Test C pre-/postemergence test; format: in vivo, Avena fatua
How it was run: (§1)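 Test chemicals were formulated with surfactant in a non-phytotoxic solvent and sprayed both on freshly planted seeds (preemergence) and on 1- to 4-leaf plants of 2–18 cm (postemergence). Flooded-paddy pots received compound directly into 3 cm of standing water, maintained for the test.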

velvetleaf = assay: Test C pre-/postemergence test; format: in vivo, Abutilon theophrasti
How it was run: as §1

duck salad = assay: Test C flooded paddy test; format: in vivo, Heteranthera limosa; settings: Flood
How it was run: (§2)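 Flooded 3 cm over soil; compound into paddy water; depth kept constant. Greenhouse 13–15 d.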

wheat = assay: Test C pre-/postemergence test; format: in vivo, Triticum aestivum
How it was run: as §1

catchweed bedstraw = assay: Test C pre-/postemergence test; format: in vivo, Galium aparine
How it was run: as §1

bermudagrass = assay: Test C pre-/postemergence test; format: in vivo, Cynodon dactylon
How it was run: as §1

barnyardgrass = assay: Test C flooded paddy test; format: in vivo, Echinochloa crus-galli; settings: Flood
How it was run: as §2

blackgrass = assay: Test C pre-/postemergence test; format: in vivo, Alopecurus myosuroides
How it was run: as §1

redroot pigweed = assay: Test A pre-/postemergence greenhouse test; format: in vivo, Amaranthus retroflexus; settings: for Plant response rating, Pigweed: 0 to 100 scale where 0 is no effect and 100 is complete control; for Pigweed plant response rating: 0 to 100 scale
How it was run: (§3)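 Pots of loam–sand soil sown with the test species are sprayed preemergence on the soil surface; emerged seedlings (1–2 leaves, 2–10 cm) are sprayed postemergence at the same time. The vehicle is a non-phytotoxic solvent mixture with surfactant. Injury is scored visually after ~10 d in greenhouse.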

corn = assay: Test A pre-/postemergence greenhouse test; format: in vivo, Zea mays; settings: for Plant response rating, Corn: 0 to 100 scale where 0 is no effect and 100 is complete control; for Corn plant response rating: 0 to 100 scale
How it was run: as §3

kochia = assay: Test C pre-/postemergence test; format: in vivo, Kochia scoparia
How it was run: as §1

[1] = tested on: common (oilseed) sunflower; assay: Test C pre-/postemergence test; format: in vivo, Helianthus annuus
How it was run: as §1

eastern black nightshade = assay: Test C pre-/postemergence test; format: in vivo, Solanum ptycanthum
How it was run: as §1

pigweed = assay: Test C pre-/postemergence test; format: in vivo, Amaranthus retroflexus
How it was run: as §1

Surinam grass = assay: Test C pre-/postemergence test; format: in vivo, Brachiaria decumbens
How it was run: as §1

crabgrass = assay: Test C pre-/postemergence test; format: in vivo, Digitaria sanguinalis
How it was run: as §1

rice = assay: Test C flooded paddy test; format: in vivo, Oryza sativa; settings: Flood
How it was run: as §2

[2] = 62 g ai/ha, Preemergence, scale 0 to 100
[3] = 125 g ai/ha, preemergence, scale 0 (no effect) to 100 (complete control)
[4] = Preemergence, 31 g ai/ha, scale 0 to 100 (0 no effect, 100 complete control)
[5] = preemergence, 250 g ai/ha, scale 0 (no effect) to 100 (complete control)
[6] = 62 g ai/ha, scale 0 to 100 (0 no effect, 100 complete control)
[7] = 250 g ai/ha, scale 0 to 100, 0 no effect, 100 complete control, 13 to 15 days
[8] = Postemergence, 500 g ai/ha, 0 is no effect, 100 is complete control
[9] = Preemergence, 125 g ai/ha, 0 no effect, 100 complete control

In the case of `Cn1nc(C(F)(F)C(F)(F)F)c(C[S+]([O-])c2ccc(Cl)c[n+]2[O-])c1OCC(F)(F)F` (stereo not shown) [Compound 92], the “Oat, Wild plant response rating” value (wild oat; [2]) is reported as 85, the “Oat, Wild plant response rating” value (wild oat; [3]) is reported as 90 and the “Plant response rating, Oat, Wild” value (wild oat; [4]) is reported as 60. For the same molecule, the “Oat, Wild plant response rating” value (wild oat; [5]) was 100, the “Velvetleaf plant response rating” value (velvetleaf; [2]) was 50 and the “Velvetleaf plant response rating” value (velvetleaf; [3]) was 100. For the same molecule, the “Plant response rating, Velvetleaf” value (velvetleaf; [4]) was 50, the “Velvetleaf plant response rating” value (velvetleaf; [5]) was 100 and the “Plant response rating, Ducksalad” value (duck salad; [6]) was 55. For the same molecule, the “Plant response rating, Ducksalad” value (duck salad; [7]) was 100, the “Wheat plant response rating” value (wheat; [2]) was 65 and the “Wheat plant response rating” value (wheat; [3]) was 90. The “Plant response rating, Wheat” value (wheat; [4]) was 35, the “Wheat plant response rating” value (wheat; [5]) was 95 and the “Galium plant response rating” value (catchweed bedstraw; [2]) was 80. For the same molecule, the “Galium plant response rating” value (catchweed bedstraw; [3]) was 95, the “Galium plant response rating” value (catchweed bedstraw; [5]) was 100 and the “Bermudagrass plant response rating” value (bermudagrass; 62 g ai/ha, Preemergence, scale 0 to 100 (0 no effect, 100 complete control)) was 100. The “Bermudagrass plant response rating” value (bermudagrass; [3]) was 100, the “Plant response rating, Bermudagrass” value (bermudagrass; [4]) was 100 and the “Bermudagrass plant response rating” value (bermudagrass; [5]) was 100. The “Plant response rating, Barnyardgrass” value (barnyardgrass; [6]) was 0, the “Plant response rating, Barnyardgrass” value (barnyardgrass; [7]) was 75 and the “Blackgrass plant response rating” value (blackgrass; [2]) was 100. The “Blackgrass plant response rating” value (blackgrass; [3]) was 100, the “Plant response rating, Blackgrass” value (blackgrass; [4]) was 85 and the “Blackgrass plant response rating” value (blackgrass; [5]) was 100. The “Plant response rating, Pigweed” value (redroot pigweed; Postemergence, 125 g ai/ha) was 50, the “Pigweed plant response rating” value (redroot pigweed; [8]) was 100 and the “Pigweed plant response rating” value (redroot pigweed; [9]) was 100. For the same molecule, the “Plant response rating, Pigweed” value (redroot pigweed; Preemergence, 500 g ai/ha) was 100, the “Plant response rating, Corn” value (corn; Postemergence, 125 g ai/ha) was 70 and the “Corn plant response rating” value (corn; [8]) was 80. The “Corn plant response rating” value (corn; [9]) was 60, the “Plant response rating, Corn” value (corn; Preemergence, 500 g ai/ha) was 90 and the “Kochia plant response rating” value (kochia; [2]) was 100. For the same molecule, the “Kochia plant response rating” value (kochia; [3]) was 100, the “Plant response rating, Kochia” value (kochia; [4]) was 50 and the “Kochia plant response rating” value (kochia; [5]) was 100. The “Sunflower plant response rating” value [1, 2] was 35, the “Sunflower plant response rating” value [1, 3] was 70 and the “Plant response rating, Sunflower” value [1, 4] was 0. For the same molecule, the “Sunflower plant response rating” value [1, 5] was 85, the “Nightshade plant response rating” value (eastern black nightshade; [2]) was 80 and the “Nightshade plant response rating” value (eastern black nightshade; [3]) was 100. For the same molecule, the “Plant response rating, Nightshade” value (eastern black nightshade; [4]) was 60, the “Nightshade plant response rating” value (eastern black nightshade; [5]) was 100 and the “Pigweed plant response rating” value (pigweed; [2]) was 100. For the same molecule, the “Pigweed plant response rating” value (pigweed; [3]) was 100, the “Plant response rating, Pigweed” value (pigweed; [4]) was 80 and the “Pigweed plant response rating” value (pigweed; [5]) was 100. The “Surinam Grass plant response rating” value (Surinam grass; [2]) was 98, the “Surinam Grass plant response rating” value (Surinam grass; [3]) was 100 and the “Plant response rating, Surinam Grass” value (Surinam grass; [4]) was 70. For the same molecule, the “Surinam Grass plant response rating” value (Surinam grass; [5]) was 100, the “Crabgrass, Large plant response rating” value (crabgrass; [2]) was 98 and the “Crabgrass, Large plant response rating” value (crabgrass; [3]) was 100. For the same molecule, the “Plant response rating, Crabgrass, Large” value (crabgrass; [4]) was 95, the “Crabgrass, Large plant response rating” value (crabgrass; [5]) was 100 and the “Plant response rating, Rice” value (rice; [6]) was 30. The “Plant response rating, Rice” value (rice; [7]) was 50.
